Data taken from patent US7799794B2, “Treatment for cardiovascular disease” (Merck Sharp & Dohme Corp., priority 2000, dated 2010).
Marks after values point to notes of the source that are not given here.

What was measured:
[1] = test system: Sprague-Dawley rats; experiment: Mild hyperuricemia model: 2% oxonic acid on normal salt diet (Example 1); format: in vivo, rat
Method: All studies utilized adult male Sprague-Dawley rats (Simonsen Laboratories, Gilroy Calif.)(200-250 g).
Rats were placed on a normal salt (NaCl 0.26%) diet with or without 2% oxonic acid (Ziegler Bros, Gardners, Pa.) added to the diet and rats were sacrificed at week 7.
Am J Physiol 268:F1164-76, 1995].
(§1) Am J Clin Pathol 1957; 28:152.]. Serum blood urea nitrogen was measured by a standard kit (Sigma, St Louis, Mo.).
(§2) Renal biopsies were fixed in Methyl-Carnoy's, 10% formalin or 100% ethanol and embedded in paraffin. The presence of uric acid crystals was evaluated by staining 4-μm ethanol-fixed sections with de Galantha and modified Von Kossa stains. Kidney tissue from rats with acute uric acid nephropathy, induced with oxonic acid and uric acid administration was used as a positive control [Stavric, B., Johnson, W. J., and Grice, H. C., Uric acid nephropathy: An experimental model, Proc. Soc. Exp. Biol. Med. 130: 512-16 (1969).]. Light microscopy was performed in 4-μm sections of Methyl-Carnoy's fixed tissue stained with periodic acid Schiff (PAS) reagent or with hematoxylin and eosin.

[2] = test system: Sprague-Dawley rats; experiment: Allopurinol intervention or oxonic acid withdrawal in hyperuricemic rats: blood pressure (Example 3); format: in vivo, rat; settings: oxonic acid withdrawn at 7 weeks, LSD continued
Source text: (§3) Rats were placed on the low sodium diet with oxonic acid for 7 weeks, and then were matched based on uric acid level and blood pressure in various groups to either receive allopurinol, have the oxonic acid withdrawn from the diet, or continue the oxonic acid/low salt diet. A control group of six rats were placed on the lowsodium diet alone for 11 weeks. All of these rats were sacrificed at week 11.
(§4) Am J Physiol 268:F1 164-76, 1995].
as §1

[3] = test system: Sprague-Dawley rats; experiment: Renal findings at 11 weeks: immunohistochemistry and BUN (Example 3); format: in vivo, rat
Method: as §3, §1, §2
Methyl-Carnoy's fixed tissue sections were analyzed by indirect immunoperoxidase [Lombardi, D., Gordon , K. L., Polinsky, P., Suga, S., Schwartz, S. M., and Johnson, R. J. Salt sensitive hypertension develops after transient exposure to angiotensin II. Hypertension 33:1013-1019, 1999] staining with the following primary antibodies: OP199, a goat polyclonal antibody against osteopontin (OPN)(gift of C. Giachelli, Univ of Wash., Seattle); ED-1, a monoclonal antibody to rat monocytes and macrophages (Serotec); goat antihuman type III collagen (Southern Biotechnology Associates Inc, Birminghan Ala.); and anti-renin, a mouse antibody to human renin (Sanofi Recherche, Montpellier, France). Sections were incubated with a secondary antibody followed by horseradish peroxidase-conjugated avidin D (Vector Laboratories, Burlingame, Calif.), diaminobenzidine (Sigma) with or without nickel chloride as a chromogen, and counsterstained with methyl green.
NOS1 was detected on formalin fixed tissue sections with a rabbit anti-rat neuronal nitric oxide synthase (Transduction Laboratories, Lexington, Ky.), followed by a biotinylated secondary antibody, diaminobenzidine with nickel chloride and counterstained with nuclear fast red.
All quantification was performed blinded. The tubular expression of osteopontin (OPN), which is a sensitive marker of tubulointerstitial injury, was calculated as the percent of renal cortex occupied by OPN-positive tubules [Lombardi, D., Gordon, K. L., Polinsky, P., Suga, S., Schwartz, S. M., and Johnson, R. J. Salt sensitive hypertension develops after transient exposure to angiotensin II. Hypertension 33:1013-1019, 1999]. Utilizing computer-assisted image analysis software (Optimas V6.2, Media Cybernetics, Silver Springs, Md.) and digitized images, the percent of area occupied by OPN positive tubules per 4 mm^2 field at a magnification of 50× was measured and the mean percent area calculated for each biopsy. The interstitial deposition of collagen type III was calculated as the % of renal cortex occupied by collagen III, noted by immunostaining, by computer image analysis. The mean number of interstitial macrophages (ED-1+cells) in each biopsy was calculated in a blinded manner by counting the total number of positive interstitial cortical cells in 20 sequentially selected 0.25 mm^2 grids at 200× magnification. Renin expression was quantified by the number of glomeruli with positive staining for juxtaglomerular renin using a minimum of 100 glomeruli in each biopsy as previously described [Eng, E., et al., Renal proliferation and phenotypic changes in rats with two-kidney, one-clip Goldblatt hypertension. […]

[4] = test system: Sprague-Dawley rats; experiment: Enalapril or L-Arginine in hyperuricemic rats on low salt diet: blood pressure (Example 4); format: in vivo, rat; settings: hyperuricemic control rats, OA + low salt diet
Method: Rats were placed on either low salt diet, low salt diet with 2% oxonic acid, low salt diet with oxonic acid and enalapril (1 mg/kg/d in drinking water), or low salt diet with oxonic acid and L-Arginine (1% in drinking water).
as §4

[5] = test system: Sprague-Dawley rats; experiment: Cyclosporine nephropathy with or without oxonic acid: body weight, renal function, uric acid, CSA level (Example 5); settings: 7 weeks
Method: Studies were conducted in 20 adult male Sprague-Dawley rats (Simmonsen Laboratories, Gilroy, Calif., USA) weighing 200 to 250 grams. All rats were fed a low salt diet (0.125% NaCl)(Zeigler Bros, Gardners, Pa.), with water ad libitum. […] In order to induce hyperuricemia, oxonic acid 2% was added to low salt diet. Because rats have uricase, an hepatic enzyme which degrades uric acid to allantoin, the blockade of this enzyme by oxonic acid is necessary.
After 7 weeks, rats were placed in individual metabolic cages for 24-hour urine collection. The following day, rats were anesthetized with xylazine and ketamine, serum was collected for creatinine and uric acid measurements, and both kidneys were obtained for histology evaluation. Biopsies were fixed in 10% formalin, 100% ethanol or Methyl Camoy's.
Serum and urine creatinine were measured by a standard picric acid method (Sigma Diagnostics creatinine kit, St. Louis, Mo.). Serum and urine uric acid were measured by a modified carbonate-phosphotungstate method [Henry, R. J., Sobel, C., and Kim, J., A modified carbonate phosphotungstate method for the determination of uric acid and comparison with the spectophotometric uricase method. Am J Clin Pathol 1957; 28:152.]. Fractional uric acid excretion and creatinine clearance were calculated by standard formulas.
All values are expressed as mean±SD, unless otherwise stated. The differences between groups were compared with unpaired Student's t tests.

## O=C(O)c1nc(=O)[nH]c(=O)[nH]1 [oxonic acid]
[1]; 2% oxonic acid diet, normal salt diet, 7 weeks, control 394±18
  body weight at the end of the study: 367.6 ± 17 g
[1]; 2% oxonic acid in the diet
  urinary uric acid: increased two-fold
[1]; 2% oxonic acid, 7 weeks
  special stains for uric acid crystals in kidney: negative
[2]
  blood pressure and serum uric acid in hypertensive, hyperuricemic rats: reduction in the blood pressure in association with a fall in serum uric acid values
[3]; OA withdrawal at 7 weeks
  BUN: 18.8 ± 0.8 mg/dL
  ED-1 (macrophages): 33.0 ± 1.6 cells/mm2
  NOS-1: 83.1 ± 10.8 positive cells/100 glomeruli
  OPN: 1.08 ± 0.06 % increase
  Renin: 50.5 ± 2.1 % positive JGA
  Type III collagen: 8.9 ± 1.6 %
[3]; low NaCl diet, allopurinol added at 7 weeks, control 0.7 ± 0.08
  OPN: 1.33 ± 0.14 % increase
[3]; low NaCl diet, allopurinol added at 7 weeks, control 7.2 ± 0.6
  Type III collagen: 13.9 ± 0.6 %
[3]; low NaCl diet, allopurinol added at 7 weeks, control 16.6 ± 0.9
  BUN: 24.1 ± 1.7 mg/dL
[3]; low NaCl diet, allopurinol added at 7 weeks, control 27.8 ± 1.4
  ED-1 (macrophages): 36.5 ± 1.4 cells/mm2
[3]; low NaCl diet, allopurinol added at 7 weeks, control 41.0 ± 1.9
  Renin: 58.4 ± 0.8 % positive JGA
[3]; low NaCl diet, allopurinol added at 7 weeks, control 104.4 ± 11.5
  NOS-1: 65.6 ± 7.1 positive cells/100 glomeruli
[4]
  increase in systolic blood pressure over the 7 week dietary period: approximately 20 mm Hg
[5]; 24-hour urine, vehicle 2.19 ± 0.66
  urinary uric acid: 5.06 ± 2.81^a mg/day
[5]; mean±SD, vehicle 1.62 ± 0.31
  Serum Uric Acid: 4.08 ± 1.22^a mg/dl
[5]; mean±SD, vehicle 422.2 ± 31.2
  Weight: 421.2 ± 28.8 grams
[5]; vehicle 0.12 ± 0.06
  FE urate (fractional excretion of uric acid): 0.11 ± 0.14
[5]; vehicle 0.20 ± 0.08
  Urate/creatinine (urine): 0.35 ± 0.27
[5]; vehicle 0.94 ± 0.24
  Serum Creatinine: 0.88 ± 0.19 mg/dL
[5]; vehicle 1.39 ± 0.73
  Creatnine Clearance: 1.94 ± 0.73 mL/min
